Key:
[1] = tested on: A172 cells; assay: Western blot of p53, p73, p21 and Bax in A172 cells; type: cell-based, human
Protocol: FIG. 3: Detection of p53 and p73 in A172 cells treated with CDR. The A172 cells were treated with the concentrations indicated (2, 5 or 10 μM) with the various compounds and for the periods of time indicated (24 hrs or 6 hrs). The proteins were extracted with a lysis buffer and were separated on 10% SDS-Page gel. After being transferred onto nitrocellulose, the p53 and p73 proteins were detected by Western blot using anti-p53 (pAb1801) and anti-p73 (1/200, Ab2, Oncogene) antibody.
FIG. 4: Detection of p21 and Bax in A172 cells treated with CDR. The A172 cells were treated with the various compounds (10 μM) for 24 hrs. The proteins were extracted with a lysis buffer and were separated on 10% SDS-Page gel. After being transferred onto nitrocellulose, the p21 and Bax proteins were detected by Western blot using anti-p21 (1/200, Oncogene) and anti-Bax (1/2000, Santacruz) antibody.
(§1) For the purpose of determining the molecular mechanisms used by the ruthenium derivatives and comparing them with those induced by cisplatinum, the expression of p53, p73 p21 and bax in the A172 and HCT116 lines was analysed.

[2] = tested on: A172 glioblastoma cells; assay: Nucleus morphology and caspase 3 activation in A172 cells; type: cell-based, human; details: cisplatinum 15 μM, CDR6 15 μM, CDR9 15 μM
Source text: FIG. 2: A—The A172 cells were cultivated on glass slides. […] The cells were then fixed in 4% paraformaldehyde, permeabilised with 0.1% NP40 and marked with Hoechst dye (blue) and the anti-p20 antibody (active fragment of caspase 3, in red). The cells were then observed under the fluorescence microscope. B—Graphic representation of the number of cells with an apoptotic, fragmented or condensed nucleus. The bars are an average of two slides from one experiment representative of 3 carried out. C—In parallel, proteic extracts were prepared from cells treated with various drugs (cisplatinum 15 μM; CDR225 μM; CDR615 μM; CDR915 μM) and following denaturation the extracts were deposited on a !0% SDS-Page gel. After migration, the proteins were transferred onto nitrocellulose (Biorad, 0.2 μm) and the p20 fragment of the caspase 3 was detected by Western blot with an anti-p20 antibody (1/1000, R&D System).
The first step towards characterising the anticancerous effects of the compounds derived from ruthenium consists of testing their activity on tumoral lines kept in culture and comparing these effects on lines which have different characteristics as regards resistance to the anticancer treatments. Two lines of human glioblastomas (A172, HS683) and two lines of neuroblastomas (N2A and SH5Y) were used in order to test the cytostatic effects of the compounds according to the invention. Cisplatinum was chosen as the cytotoxic comparison agent. In a first approach, an MTT test was used to measure the activity of a mitochondrial enzyme, and this gives an estimate of the number of cells. Then, the cytotoxic effects of the compounds according to the invention were characterised in greater detail by analysing the morphology of the nucleus and the activation of caspase 3—two markers of cell apoptosis.

[3] = tested on: HCT116 cells; assay: Western blot of p53, p21 and phospho-histone H3 in HCT116 cells; type: cell-based, human; details: 10 μM
Protocol: FIG. 5: Detection of p53, p21 and of the phosphorylation of histone H3 in the HCT116 cells treated with CDR. The HCT116 cells were treated with the various compounds (10 μM) and for the periods of time indicated (24 hrs or 6 hrs). The proteins were extracted with a lysis buffer and were separated on 10% SDS-Page gel. After being transferred onto nitrocellulose, the p53, p21 proteins and histone H3 were detected by Western blot using anti-p53 (pAb1801), anti-p21 (1/200, Oncogene) antibody and anti-phospho serine 10 of histone H3 (1/2000, Santacruz).
as §1

[4] = tested on: 2008/CMV and 2008/ATP7B cells; assay: MTT test on 2008/CMV and 2008/ATP7B cells; type: cell-based; details: 48 hrs
Protocol: FIG. 6: The 2008/CMV and 2008/ATP7B cells (contributed by Dr. Howell) were cultivated in plates with 96 wells in DMEM medium with 10% calf serum. At 30% confluence, the cells were treated for 48 hrs with cisplatinum or the various compounds derived from ruthenium in the concentrations indicated (1, 5, 15, 50 μM). The quantity of cells present in the wells was evaluated by an MTT (MTT, Sigma) test. The results obtained were related to the values of the control condition (100% viability). The graphs show an average of 8 points with the typical spacings over one experiment representative of 3 carried out. The thick black line indicates the IC50 for each graph.
One of these mechanisms is the overexpression of the copper export pump (ATP7B) which expels cisplatinum from the cell. It has been shown that this molecule is overexpressed in human tumours and that cell lines which overexpress this molecule are more resistant to cisplatinum and carboplatinum than control lines.
Two cell lines derived from 2008 cells (Katano, Safaei et al. 2003) were studied. One overexpresses the ATP7B pump, and the other only contains the control vector. The cytostatic activity of the cisplatinum and the CDR was tested in these two lines using the MTT test.

[5] = tested on: RDM4; assay: DNA fragmentation by marking with propidium iodure on RDM4; type: cell-based, mouse
Source text: A second specific marking of apoptosis is the fragmentation of DNA between the nucleosomes. The fragmented DNA is located in the apoptotic bodies in the terminal phase of apoptosis. This DNA is hypodiploid and so less in quantity than that present in normal cells. It can be quantified by flux cytometry after permeabilisation of the cell membranes and marking with PI. The quantity of DNA in a normal cell is 2n in the G0/G1 phase and 4n in the G2 phase. Therefore, the sub-G0 DNA in a quantity of less than 2n has a weaker fluorescence intensity.
This phenomenon tends to diminish after 48 hrs of treatment. On the other hand, when the cells are treated with 45 μM, the formation of hypodiploid particles, visualised by the sub-G0 DNA content, is less than 10% at 24 hrs and exceeds 50% at 48 hrs such as to reach 60% at 72 hrs. […] The quantity of hypodiploid particles in the control cells remains less than 4% over this same period.

[6] = tested on: RDM4; assay: Apoptosis by marking with Annexin-V on RDM4; type: cell-based, mouse
Protocol: Cell death is measured by a first specific marking of the apoptosis. The externalisation of the anionic phospholipids, normally located on the inner layer of the plasmic membrane, is one of the precocious markers of apoptosis (Martin et al, 1996). Annexin-V is a protein which fixes specifically onto the phosphatidylserines in the presence of calcium. When Annexin-V is coupled to a fluorochrome, it makes it possible to quantify the apoptotic cells by flux cytometry.
The control cells are treated with the equivalent volume of solvent (ethanol). […] After 72 hrs, the apoptosis rate is still as low as that of the control cells. On the other hand, with treatment at 45 μM, this rate already reaches 70% at 24 hrs and exceeds 99% after 48 hrs—a sign of significant apoptosis induction.

| Compound | expression of p21 and Bax ([1]; 10 μM, 24 hours treatment) | p53 proteic levels ([1]; 6 hrs treatment) | p53 proteic levels ([1]; 24 hrs treatment) | proteic levels of the active fragment of caspase 3 (Western blot) [2] | increase in expression of p21 and inhibition of phosphorylation of histone H3 [3] | sensitivity of the line expressing ATP7B relative to the control line (MTT) [4] | cell cycle distribution (propidium iodure) ([5]; 15 μM, first two days) | hypodiploid particles (sub-G0 DNA content) ([5]; 45 μM, 72 hrs) | apoptosis rate (Annexin-V) ([6]; 15 μM, up to 72 hrs) | apoptosis rate (Annexin-V) ([6]; 45 μM, 24 hrs) |
| --- | --- | --- | --- | --- | --- | --- | --- | --- | --- | --- |
| N.N.[Cl][Pt][Cl] [Cisplatinum, reference compound] | induces the expression of p21 and Bax | induce p53 | induces the p53 proteic levels | increasing the proteic levels of the active fragment of caspase 3 | identical for CDR 6 and cisplatinum | significantly less sensitive |  |  |  |  |
| [Ru(C6H4-2-C5H4N)(phen)(NCMe)2]PF6 [Compound 11] |  |  |  |  |  |  | accumulation in the G0/G1 phase | 60% | does not shown any effect | 70% |
